Assay results published in patent US5210193A, “Piperazine derivatives” (American Cyanamid Company, priority 1990, dated 1993).
≈ marks a conversion by molar mass, not a printed value.

Tests used:
Assay in all cases: in vitro antibacterial MIC, agar plate dilution
Type in all cases: cell-based
Citrobacter div. K 82-24 = details: 18 hours, 35° C.
Summary of the method: (§1)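 MIC, mcg/ml: lowest concentration with no visible growth after 18 h incubation at 35° C. Mueller-Hinton agar dilution plates; ~10^4 CFU inoculum via Steers replicating device.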

[1] = system: Enterobacter cloacae K 84-10; details: Enterobacter cloacae, K8410, 18 h, 35° C., read-out: MIC
Summary of the method: as §1

[2] = system: Enterobacter cloacae MOR 84-30; details: Enterobacter cloacae, MOR8430, 18 h, 35° C., read-out: MIC
Summary of the method: as §1

[3] = system: Enterobacter cloacae VGH 84-39; details: Enterobacter cloacae, VGH8439, 18 h, 35° C., read-out: MIC
Summary of the method: as §1

[4] = system: Escherichia coli ATCC 25922; details: Escherichia coli, ATCC25922, 18 h, 35° C., read-out: MIC
Summary of the method: as §1

[5] = system: Escherichia coli CMC 84-11; details: 18 hours, 35° C.
Summary of the method: as §1

[6] = system: Escherichia coli CMC 84-50; details: Escherichia coli, CMC8450, 18 h, 35° C., read-out: MIC
Summary of the method: as §1

Escherichia coli LL 311 = details: 18 hours, 35° C.
Summary of the method: as §1

[7] = system: Escherichia coli MOR 84-20; details: Escherichia coli, MOR8420, 18 h, 35° C., read-out: MIC
Summary of the method: as §1

[8] = system: Escherichia coli VGH 84-19; details: Escherichia coli, VGH8419, 18 h, 35° C., read-out: MIC
Summary of the method: as §1

[9] = system: Klebsiella pneumoniae CMC 84-31; details: Klebsiella pneumoniae, CMC8431, 18 h, 35° C., read-out: MIC
Summary of the method: as §1

[10] = system: Klebsiella pneumoniae IO 83-5; details: Klebsiella pneumoniae, IO835, 18 h, 35° C., read-out: MIC
Summary of the method: as §1

[11] = system: Klebsiella pneumoniae MOR 84-24; details: Klebsiella pneumoniae, MOR8424, 18 h, 35° C., read-out: MIC
Summary of the method: as §1

[12] = system: Morganella morganii CMC 84-37; details: Morganella morganii, CMC8437, 18 h, 35° C., read-out: MIC
Summary of the method: as §1

[13] = system: Morganella morganii CMC 84-38; details: 18 hours, 35° C.
Summary of the method: as §1

[14] = system: Morganella morganii MOR 84-45; details: Morganella morganii, MOR8445, 18 h, 35° C., read-out: MIC
Summary of the method: as §1

[15] = system: Morganella morganii VHG 84-12; details: Morganella morganii, VHG8412, 18 h, Morganella morganii VHG 84-12 (VGH 84-12 for Example 131), 35° C., read-out: MIC
Summary of the method: as §1

[16] = system: Proteus rettgeri CMC 84-41; details: 18 hours, 35° C.
Summary of the method: as §1

[17] = system: Proteus rettgeri IO 83-21; details: Providencia rettgeri, IO8321, 18 h, 35° C., read-out: MIC
Summary of the method: as §1

[18] = system: Providencia stuarti CMC 83-3; details: Providencia, CMC833, 18 h, 35° C., read-out: MIC
Summary of the method: as §1

[19] = system: Pseudomonas aeruginosa CMC 83-20; details: 18 hours, 35° C.
Summary of the method: as §1

[20] = system: Pseudomonas aeruginosa K 84-16; details: Pseudomonas aeruginosa, K8416, 18 h, 35° C., read-out: MIC
Summary of the method: as §1

[21] = system: Pseudomonas aeruginosa LL-1244; details: 18 hours, 35° C.
Summary of the method: as §1

[22] = system: Pseudomonas aeruginosa VGH 84-3; details: Pseudomonas aeruginosa, VGH843, 18 h, 35° C., read-out: MIC
Summary of the method: as §1

[23] = system: Pseudomonas aeruginosa VGH 84-4; details: Pseudomonas aeruginosa, VGH844, 18 h, 35° C., read-out: MIC
Summary of the method: as §1

[24] = system: Serratia marcescens CMC 83-74; details: Serratia marcescens, CMC8374, 18 h, 35° C., read-out: MIC
Summary of the method: as §1

[25] = system: Serratia marcescens IO 83-63; details: IO8363, 18 hours, 35° C.
Summary of the method: as §1

[26] = system: Serratia marcescens K 84-18; details: 18 hours, 35° C.
Summary of the method: as §1

[27] = system: Serratia marcescens MOR 84-41; details: Serratia marcescens, MOR8441, 18 h, 35° C., read-out: MIC
Summary of the method: as §1

[28] = system: Serratia marcescens VGH 84-30; details: 18 hours, 35° C.
Summary of the method: as §1

[29] = system: Staphylococcus aureus ATTC 29213; details: 18 hours, 35° C.
Summary of the method: as §1

[30] = system: Staphylococcus aureus CMC 83-131; details: Staphylococcus aureus, CMC83131, 18 h, 35° C., read-out: MIC
Summary of the method: as §1

[31] = system: Staphylococcus aureus K 82-26; details: 18 hours, 35° C.
Summary of the method: as §1

[32] = system: Staphylococcus aureus Smith; details: Staphylococcus aureus, 18 h, 35° C., read-out: MIC
Summary of the method: as §1

[33] = system: Staphylococcus aureus VGH 84-45; details: Staphylococcus aureus, VGH8445, 18 h, 35° C., read-out: MIC
Summary of the method: as §1

[34] = system: Staphylococcus aureus VGH 84-47; details: 18 hours, 35° C.
Summary of the method: as §1

[35] = system: Streptococcus faecalis CMC 83-120; details: Enterococcus faecalis, CMC83120, 18 h, 35° C., read-out: MIC
Summary of the method: as §1

[36] = system: Streptococcus faecalis UCI 85-19; details: 18 hours, 35° C.
Summary of the method: as §1

[37] = system: Streptococcus faecalis UCI 85-30; details: Enterococcus faecalis, UCI8530, 18 h, 35° C., read-out: MIC
Summary of the method: as §1

[38] = system: Streptococcus faecalis VGH 84-65; details: Enterococcus faecalis, VGH8465, 18 h, 35° C., read-out: MIC
Summary of the method: as §1

[39] = system: Streptococcus faecalis VGH 84-69; details: Enterococcus faecalis, VGH8469, 18 h, 35° C., read-out: MIC
Summary of the method: as §1

- MIC (Citrobacter div. K 82-24): 0.008 µg/mL (≈ 0.0215 µM)
- MIC [1]: 0.015 µg/mL (≈ 0.0404 µM)
- MIC [2]: 0.25 µg/mL (≈ 0.673 µM)
- MIC [3]: 0.015 µg/mL (≈ 0.0404 µM)
- MIC [4]: 0.015 µg/mL (≈ 0.0404 µM)
- MIC [5]: > 0.015 µg/mL
- MIC [6]: 0.015 µg/mL (≈ 0.0404 µM)
- MIC (Escherichia coli LL 311): 0.03 µg/mL (≈ 0.0808 µM)
- MIC [7]: 0.008 µg/mL (≈ 0.0215 µM)
- MIC [8]: 0.008 µg/mL (≈ 0.0215 µM)
- MIC [9]: 0.015 µg/mL (≈ 0.0404 µM)
- MIC [10]: 0.03 µg/mL (≈ 0.0808 µM)
- MIC [11]: 0.03 µg/mL (≈ 0.0808 µM)
- MIC [12]: 0.03 µg/mL (≈ 0.0808 µM)
- MIC [13]: 0.3 µg/mL (≈ 0.808 µM)
- MIC [14]: 0.008 µg/mL (≈ 0.0215 µM)
- MIC [15]: 0.12 µg/mL (≈ 0.323 µM)
- MIC [16]: 0.03 µg/mL (≈ 0.0808 µM)
- MIC [17]: 0.12 µg/mL (≈ 0.323 µM)
- MIC [18]: 2 µg/mL (≈ 5.38 µM)
- MIC [19]: 1 µg/mL (≈ 2.69 µM)
- MIC [20]: 2 µg/mL (≈ 5.38 µM)
- MIC [21]: 1 µg/mL (≈ 2.69 µM)
- MIC [22]: 4 µg/mL (≈ 10.8 µM)
- MIC [23]: 1 µg/mL (≈ 2.69 µM)
- MIC [24]: 4 µg/mL (≈ 10.8 µM)
- MIC [25]: 0.25 µg/mL (≈ 0.673 µM)
- MIC [26]: > 0.015 µg/mL
- MIC [27]: 0.06 µg/mL (≈ 0.162 µM)
- MIC [28]: 1 µg/mL (≈ 2.69 µM)
- MIC [29]: 0.25 µg/mL (≈ 0.673 µM)
- MIC [30]: 0.25 µg/mL (≈ 0.673 µM)
- MIC [31]: 0.25 µg/mL (≈ 0.673 µM)
- MIC [32]: 0.06 µg/mL (≈ 0.162 µM)
- MIC [33]: 0.06 µg/mL (≈ 0.162 µM)
- MIC [34]: 0.06 µg/mL (≈ 0.162 µM)
- MIC [35]: 1 µg/mL (≈ 2.69 µM)
- MIC [36]: 0.5 µg/mL (≈ 1.35 µM)
- MIC [37]: 2 µg/mL (≈ 5.38 µM)
- MIC [38]: 0.5 µg/mL (≈ 1.35 µM)
- MIC [39]: 1 µg/mL (≈ 2.69 µM)
SMILES: O=C(O)c1cn(C2CC2)c2cc(N3CCNC(C4CC4)C3)c(F)cc2c1=O (centres unmarked) [Example 96, 7-(3-Cyclopropyl-1-piperazinyl) -1-cyclopropyl-6-fluoro-1,4-dihydro-4-oxo-3-quinolinecarboxylic acid]
